Reference: US8912207B2, “2-aldoximino-5-fluoropyrimidine derivatives” (Dow AgroSciences, LLP., priority 2009, dated 2014)
Like-named read-outs stand apart in the source and are kept apart here.

What was measured:
[1] = test system: Mycosphaerella graminicola; anamorph: Septoria tritici; Bayer code SEPTTR; experiment: Fungicidal activity: leaf blotch of wheat, one-day protectant (1DP) and three-day curative (3DC) tests on wheat plants; type: in vivo, Septoria tritici on wheat plants (variety Yuma); conditions: Zymoseptoria tritici, rating of % disease control vs untreated inoculated plants
Protocol: Evaluation of Fungicidal Activity: Leaf Blotch of Wheat (Mycosphaerella graminicola; anamorph: Septoria tritici; Bayer code […]) Wheat plants (variety Yuma) were grown from seed in a greenhouse in 50% mineral soil/50% soil-less Metro mix until the first leaf was fully emerged, with 7-10 seedlings per pot. These plants were inoculated with an aqueous spore suspension of Septoria tritici either prior to or after fungicide treatments. After inoculation the plants were kept in 100% relative humidity (one day in a dark dew chamber followed by two to three days in a lighted dew chamber) to permit spores to germinate and infect the leaf. The plants were then transferred to a greenhouse for disease to develop. The following table presents the activity of typical compounds of the present disclosure when evaluated in these experiments. The effectiveness of the test compounds in controlling disease was determined by assessing the severity of disease on treated plants, then converting the severity to percent control based on the level of disease on untreated, inoculated plants. In each case of Table III the rating scale is as follows: […]

[2] = 24 h, one-day protectant, read-out: SEPTTR 25 ppm 1DP
[3] = 24 h, one-day protectant, read-out: SEPTTR 100 ppm 1DP
[4] = 72 h, three-day curative, read-out: SEPTTR 25 ppm 3DC
[5] = 72 h, three-day curative, read-out: SEPTTR 100 ppm 3DC

| Compound | pest or weed control at 25 ppm [1, 2] [%] | pest or weed control at 100 ppm [1, 3] [%] | pest or weed control at 25 ppm [1, 4] [%] | pest or weed control at 100 ppm [1, 5] [%] | melting point |
| --- | --- | --- | --- | --- | --- |
| CN(C)/C=N/c1nc(ON=Cc2ccccc2)ncc1F [Compound 1, N′-{5-fluoro-2-[1-phenylmethylideneamino-oxy]pyrimidin-4-yl}-N,N-dimethylformamidine] | 76 to 100 | 76 to 100 | 76 to 100 | 76 to 100 | 240 to 244 °C (dec.) |
| CN(C)/C=N/c1nc(ON=Cc2ccc(Cl)cc2)ncc1F [Compound 2] | 76 to 100 | 76 to 100 | 76 to 100 | 76 to 100 | 230 to 242 °C (dec.) |
| CN(C)/C=N/c1nc(ON=Cc2ccccc2Cl)ncc1F [Compound 3] | 76 to 100 | 76 to 100 | 76 to 100 | 76 to 100 | 186 to 210 °C (dec.) |
| O=CNc1nc(ON=Cc2ccccc2)ncc1F [Compound 4, N-{5-fluoro-2-[1-phenylmethylideneamino-oxy]pyrimidin-4-yl}formamide] | 76 to 100 | 76 to 100 | 76 to 100 | 76 to 100 | – |
| Nc1nc(ON=Cc2ccccc2Cl)ncc1F [Compound 5, 2-chlorobenzaldehyde O-(4-amino-5-fluoropyrimidin-2-yl)oxime] | 76 to 100 | 76 to 100 | 76 to 100 | 76 to 100 | 220 to 230 °C (dec.) |
| Nc1nc(ON=Cc2ccccc2)ncc1F [Compound 6] | 76 to 100 | 76 to 100 | 76 to 100 | 76 to 100 | 151 to 153 °C |
| CC(C)C=NOc1ncc(F)c(N)n1 [Compound 7] | 76 to 100 | 76 to 100 | 76 to 100 | 76 to 100 | 105 to 107 °C |
| Nc1nc(ON=Cc2ccc(Cl)cc2)ncc1F [Compound 8] | 76 to 100 | 76 to 100 | 76 to 100 | 76 to 100 | 200 to 220 °C (dec.) |
| COc1ccccc1C=NOc1ncc(F)c(N)n1 [Compound 9] | 76 to 100 | 76 to 100 | 76 to 100 | 76 to 100 | 240 to 250 °C (dec.) |
| CC=NOc1ncc(F)c(N)n1 [Compound 10] | 76 to 100 | 76 to 100 | 76 to 100 | 76 to 100 | 102 to 105 °C |
| Cc1ccc(C=NOc2ncc(F)c(N)n2)cc1 [Compound 11] | 76 to 100 | 76 to 100 | 76 to 100 | 76 to 100 | 201 to 220 °C (dec.) |
| COc1ccc(C=NOc2ncc(F)c(N)n2)cc1 [Compound 12] | 76 to 100 | 76 to 100 | 76 to 100 | 76 to 100 | 250 to 270 °C (dec.) |
| COc1ccc(C=NOc2ncc(F)c(/N=C/N(C)C)n2)cc1 [Compound 13, N′-{5-Fluoro-2-[1-(4-methoxyphenyl)-methylideneaminooxy]pyrimidin-4-yl}-N,N-dimethylformamidine] | 76 to 100 | 76 to 100 | 76 to 100 | 76 to 100 | 243 to 245 °C (dec.) |
| COc1ccccc1C=NOc1ncc(F)c(/N=C/N(C)C)n1 [Compound 14] | 76 to 100 | 76 to 100 | 76 to 100 | 76 to 100 | 220 to 230 °C (dec.) |
| Cc1ccc(C=NOc2ncc(F)c(/N=C/N(C)C)n2)cc1 [Compound 15] | 76 to 100 | 76 to 100 | 76 to 100 | 76 to 100 | 247 to 253 °C (dec.) |
| CC(C)C=NOc1ncc(F)c(NCc2ccccc2F)n1 [Compound 16, 2-methylpropionaldehyde O-[5-fluoro-4-(2-fluorobenzylamino)pyrimidin-2-yl]oxime] | 0 to 25 | 0 to 25 | 51 to 75 | 76 to 100 | – |
| Fc1ccccc1CNc1nc(ON=Cc2ccccc2)ncc1F [Compound 17] | 76 to 100 | 76 to 100 | 0 to 25 | 0 to 25 | – |
| Fc1ccccc1CNc1nc(ON=Cc2ccc(Cl)cc2)ncc1F [Compound 18] | 76 to 100 | 76 to 100 | 0 to 25 | 0 to 25 | 98 to 103 °C |

| Compound | pest or weed control at 25 ppm [1, 2] [%] | pest or weed control at 100 ppm [1, 3] [%] | pest or weed control at 25 ppm [1, 4] [%] | pest or weed control at 100 ppm [1, 5] [%] | melting point |
| --- | --- | --- | --- | --- | --- |
| COc1ccc(C=NOc2ncc(F)c(NCc3ccccc3F)n2)cc1 [Compound 19] | 51 to 75 | 76 to 100 | 0 to 25 | 0 to 25 | – |
| CC=NOc1ncc(F)c(NCc2ccccc2F)n1 [Compound 20] | 26 to 50 | 51 to 75 | 51 to 75 | 76 to 100 | 99 to 100 °C |
| Fc1cnc(ON=Cc2ccccc2)nc1NCc1ccccc1 [Compound 21] | 0 to 25 | 76 to 100 | 51 to 75 | 76 to 100 | 111 to 113 °C |
| Fc1cnc(ON=Cc2ccc(Cl)cc2)nc1NCc1ccccc1 [Compound 22] | 0 to 25 | 76 to 100 | 0 to 25 | 0 to 25 | 111 to 114 °C |
| COc1ccc(C=NOc2ncc(F)c(NCc3ccccc3)n2)cc1 [Compound 23] | 0 to 25 | 76 to 100 | 26 to 50 | 26 to 50 | 180 to 194 °C |
| CC=NOc1ncc(F)c(NCc2ccccc2)n1 [Compound 24] | 0 to 25 | 0 to 25 | 0 to 25 | 26 to 50 | – |
| CC(C)C=NOc1ncc(F)c(NCc2ccccc2)n1 [Compound 25] | 0 to 25 | 26 to 50 | 26 to 50 | 76 to 100 | – |
| Fc1cnc(ON=Cc2ccccc2)nc1NCc1ccc(Cl)cc1 [Compound 26] | 0 to 25 | 0 to 25 | 26 to 50 | 26 to 50 | 127 to 128 °C |
| Fc1cnc(ON=Cc2ccc(Cl)cc2)nc1NCc1ccc(Cl)cc1 [Compound 27] | 0 to 25 | 26 to 50 | 26 to 50 | 51 to 75 | 119 to 121 °C |
| COc1ccc(CNc2nc(ON=Cc3ccccc3)ncc2F)cc1 [Compound 31] | 26 to 50 | 76 to 100 | 51 to 75 | 76 to 100 | – |
| COc1ccc(CNc2nc(ON=Cc3ccc(Cl)cc3)ncc2F)cc1 [Compound 32] | 0 to 25 | 0 to 25 | 26 to 50 | 76 to 100 | – |
| COc1ccc(C=NOc2ncc(F)c(NCc3ccc(OC)cc3)n2)cc1 [Compound 33] | 51 to 75 | 76 to 100 | 0 to 25 | 51 to 75 | – |
| COc1ccc(CNc2nc(ON=CC(C)C)ncc2F)cc1 [Compound 35] | 0 to 25 | 26 to 50 | 0 to 25 | 76 to 100 | – |
| CN(Cc1ccccc1)c1nc(ON=Cc2ccccc2)ncc1F [Compound 36] | 0 to 25 | 0 to 25 | 26 to 50 | 51 to 75 | – |
| COc1ccc(C=NOc2ncc(F)c(N(C)Cc3ccc(Cl)cc3)n2)cc1 [Compound 43] | 0 to 25 | 0 to 25 | 26 to 50 | 26 to 50 | – |
| CC=NOc1ncc(F)c(N(C)Cc2ccc(Cl)cc2)n1 [Compound 44] | – | – | – | – | 214 to 220 °C (dec.) |
| COc1ccc(CN(C)c2nc(ON=Cc3ccccc3)ncc2F)cc1 [Compound 46] | 0 to 25 | 0 to 25 | 26 to 50 | 76 to 100 | – |
| CC=NOc1ncc(F)c(N(C)Cc2ccc(OC)cc2)n1 [Compound 49] | 0 to 25 | 0 to 25 | 0 to 25 | 26 to 50 | – |
